Series [1] is described as follows: Acute toxicity (LD50) by oral administration in mice. Type of series: in vivo.
The test system of series [2] is Candida albicans. The series can be described thus: In vitro antifungal activity, MIC (Method A). Type of series: cell-based. As to conditions: 3 days, 27° C.; for MIC: Candida albicans, 72 h; for Antifungal activity MIC: 1×10^5 cells/ml, pH 7.0. Put shortly: (§1)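 MIC, the lowest concentration with no visible growth, by NCCLS microbroth dilution in Yeast Nitrogen Base solidified with 0.2% low-melting agarose, pH 7.0 with 0.25% K2HPO4. Inoculum 1×10^5 cells/ml; read after 3 days at 27° C.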

For the next series, the system named is Aspergillus fumigatus. The series can be described thus: In vitro antifungal activity, MIC (Method A). Type of series: cell-based. As to conditions: 3 days, 27° C.; for MIC: Aspergillus fumigatus, 72 h; for Antifungal activity MIC: 1×10^5 cells/ml, pH 7.0. Put shortly: as §1
Another series relates to Cryptococcus neoformans. In words: In vitro antifungal activity, MIC (Method A). Type of series: cell-based. As to conditions: 3 days, 27° C.; for MIC: Cryptococcus neoformans, 72 h; for Antifungal activity MIC: 1×10^5 cells/ml, pH 7.0. In a few lines:
as §1

The test system of series [3] is Candida albicans. In words: In vitro antifungal activity, IC80 (Method B). It is filed as cell-based. As for the experimental part: (§2) The in vitro antifungal activities of the representative compounds of the present invention shown in Table 1 and Table 2 were measured by determining the minimal inhibitory concentrations (MIC: Method A) or 80% growth inhibition concentration (IC80 : Method B) respectively. MIC is defined as the concentration of an antifungal at which growth of fungi is not observed and IC80 is the concentration where cell turbidity measured at OD630 is reduced by 80%.
(§3) Antifungal activities were determined by either method A or B (see below) using microtest plates according NCCLS with minor modifications (Galgiani et at., Antimicrob. Agents Chemother. 33, 731 (1989)).
(§4) (Method B) The medium for yeast was buffered to pH 7.0 with 0.25% K2 HPO4 in Yeast Nitrogen Base (Difco Lab.). For the filamentous fungi, 0.2% of low melting point agar was supplemented to the above medium. Inoculum size was 1×10^4 cells/ml, and incubation was carried out for 1-2 days at 27° C. Fluconazole (Pfizer) was used as reference.

In another series the test system is C. neoformans. In words: In vitro antifungal activity, IC80 (Method B). Type of series: cell-based. As to conditions: Cryptococcus neoformans. The method, then: as §2, §3, §4
The test system of a further series is A. fumigatus. In words: In vitro antifungal activity, IC80 (Method B). Type of series: cell-based. As to conditions: Aspergillus fumigatus, read-out: Antifungal activity IC80. The method, then:
as §2, §3, §4

Setting [4] is: pH 7, Candida albicans CY1002, 1×10^4 cells/ml, 1-2 days, 27° C., read-out: Antifungal activity IC80.
Where [5] appears, read: pH 7, Candida albicans CY1005, 1×10^4 cells/ml, 1-2 days, 27° C., read-out: Antifungal activity IC80.
Where [6] appears, read: pH 7, Candida albicans CY3003, 1×10^4 cells/ml, 1-2 days, 27° C., read-out: Antifungal activity IC80.
The mark [7] stands for this setting: pH 7, C. neoformans CY1057, 1×10^4 cells/ml, 1-2 days, 27° C., read-out: Antifungal activity IC80.
[8] abbreviates: pH 7, C. neoformans CY1059, 1×10^4 cells/ml, 1-2 days, 27° C., read-out: Antifungal activity IC80.
[9] abbreviates: A. fumigatus CF1003, 1×10^4 cells/ml, 1-2 days, 27° C., 0.2% agar.
Setting [10] is: A. fumigatus CF1004, 1×10^4 cells/ml, 1-2 days, 27° C., 0.2% agar.

Values after ≈ are worked out from the molar mass of the structure shown. Where a name gives a salt, the structure may show the parent alone. Read-outs that look alike come from different tables or passages of the source.

Broadly, the LD50 is the dose at which mortality reaches 50%. For orientation: MIC means the lowest concentration found to suppress growth. Read a high MIC as a less susceptible organism. As for `CCCCCCC/C=C/[C@@H]1OC[C@H](C)[C@H](OC)[C@H]1OC(=O)CN` [Example 4, (2S,3R,4S,5S)-4-methoxy-5-methyl-2-[(E)-1-nonenyl]-tetrahydro-2H-pyran-3-ylglycinate trifluoroacetic acid salt], in series [1] (mouse, in vivo, read-out: LD50), the LD50 was more than 500 mg/kg. In addition, the minimum inhibitory concentration (MIC) against Candida albicans [2] (pH 7, Candida albicans CY1002, 1×10^5 cells/ml) was found to be 100 µg/mL; against Candida albicans [2] (pH 7, Candida albicans CY1005, 1×10^5 cells/ml), 50 µg/mL; in the series on Candida albicans [2] (pH 7, Candida albicans CY3003, 1×10^5 cells/ml), 50 µg/mL; in the series on Aspergillus fumigatus (pH 7, Aspergillus fumigatus CF1003, 1×10^5 cells/ml), 3.13 µg/mL; against Aspergillus fumigatus (pH 7, Aspergillus fumigatus CF1004, 1×10^5 cells/ml), 3.13 µg/mL; in the series with Aspergillus fumigatus (pH 7, Aspergillus fumigatus CF1023, 1×10^5 cells/ml), 1.56 µg/mL. For the same compound, the MIC against Cryptococcus neoformans (pH 7, Cryptococcus neoformans CY1057, 1×10^5 cells/ml) was determined as 3.13 µg/mL; against Cryptococcus neoformans (pH 7, Cryptococcus neoformans CY1059, 1×10^5 cells/ml), 6.25 µg/mL; in the series with Cryptococcus neoformans (pH 7, Cryptococcus neoformans CY1061, 1×10^5 cells/ml), 12.5 µg/mL.

For the compound `CCCCCCC/C=C/[C@@H]1OC[C@H](C)C=C1Cn1ccnc1` [Example 60, 1-[[(2S,5R)-5,6-dihydro-5-methyl-2-[(E)-1-nonenyl]-2H-pyran-3-yl]methyl]-1H-imidazole], the LD50 in series [1] (mouse, in vivo, read-out: LD50) is more than 500 mg/kg.

Regarding `OC(Cn1cncn1)(Cn1cncn1)c1ccc(F)cc1F` [FCZ, Fluconazole, reference compound], the IC80 in the series with Candida albicans [3] (pH 7, read-out: Antifungal activity IC80, Candida albicans CY1002, 1×10^4 cells/ml, 1-2 days, 27° C.) is 1.1 µg/mL (≈ 3.59 µM); with Candida albicans [3] (pH 7, read-out: Antifungal activity IC80, Candida albicans CY1005, 1×10^4 cells/ml, 1-2 days, 27° C.), 1.2 µg/mL (≈ 3.92 µM); in the series on Candida albicans [3] (pH 7, read-out: Antifungal activity IC80, Candida albicans CY3003, 1×10^4 cells/ml, 1-2 days, 27° C.), 1 µg/mL (≈ 3.27 µM); with C. neoformans (pH 7, read-out: Antifungal activity IC80, C. neoformans CY1057, 1×10^4 cells/ml, 1-2 days, 27° C.), 5.2 µg/mL (≈ 17 µM); in the series with C. neoformans (pH 7, read-out: Antifungal activity IC80, C. neoformans CY1059, 1×10^4 cells/ml, 1-2 days, 27° C.), 8.6 µg/mL (≈ 28.1 µM); in the series on A. fumigatus, 150 µg/mL (≈ 490 µM).

For `CCCCCCCCO[C@@H]1CCC(C)(C)[C@H](OC)[C@@H]1Cn1cncn1` [Example 69, 1-[[(1R,2R,6R)-2-methoxy-3,3-dimethyl-6-octyloxycyclohexyl]methyl]-1H-1,2,4-triazole], the LD50 in series [1] (mouse, in vivo, read-out: LD50) is more than 500 mg/kg.

For the compound `CCc1ccc(CC[C@@H]2CCC(C)(C)[C@H](OC)[C@H]2Cn2cncn2)cc1` [Example 81, 1-[[(1R,2R,6R)-6-(4-ethylphenyl)ethyl-2-methoxy-3,3-dimethyl-cyclohexyl]methyl]-1H-1,2,4-triazole], the IC80 in the series on Candida albicans [3] (setting [4]) is 0.0075 µg/mL (≈ 0.0211 µM); in the series on Candida albicans [3] (setting [5]) it was 0.025 µg/mL (≈ 0.0703 µM); in the series on Candida albicans [3] (setting [6]) it was 0.0042 µg/mL (≈ 0.0118 µM); in the series with C. neoformans (setting [7]) it was 1.5 µg/mL (≈ 4.22 µM); in the series with C. neoformans (setting [8]), 1.5 µg/mL (≈ 4.22 µM); in the series on A. fumigatus (setting [9]), more than 200 µg/mL. Moreover, in the series with A. fumigatus (setting [10]), the IC80 is more than 200 µg/mL.

Turning to `CO[C@@H]1[C@@H](Cn2cncn2)[C@H](CCc2ccc3ccccc3n2)CCC1(C)C` [Example 76, 1-[[(1R,2R,6S)-2-methoxy-3,3-dimethyl-6-(2-quinolin-2-ylethyl)cyclohexyl]methyl]-1H,1,2,4-triazole], the IC80 with Candida albicans [3] (setting [4]) is 0.38 µg/mL (≈ 1 µM); in the series with Candida albicans [3] (setting [5]), 0.77 µg/mL (≈ 2.03 µM); in the series with Candida albicans [3] (setting [6]), 0.36 µg/mL (≈ 0.951 µM); in the series on C. neoformans (setting [7]), 10 µg/mL (≈ 26.4 µM); with C. neoformans (setting [8]) it was 30 µg/mL (≈ 79.3 µM); with A. fumigatus (setting [9]) it was 30 µg/mL (≈ 79.3 µM). In the series with A. fumigatus (setting [10]), the IC80 amounted to 36 µg/mL (≈ 95.1 µM).

Consider `CO[C@@H]1[C@@H](Cn2cncn2)[C@H](CCc2ccc(N(C)C)cc2)CCC1(C)C` [Example 71], for which the IC80 with Candida albicans [3] (setting [4]) was 0.03 µg/mL (≈ 0.081 µM); in the series with Candida albicans [3] (setting [5]), 0.094 µg/mL (≈ 0.254 µM); in the series with Candida albicans [3] (setting [6]), 0.036 µg/mL (≈ 0.0972 µM); in the series on C. neoformans (setting [7]) it was 1.2 µg/mL (≈ 3.24 µM); in the series on C. neoformans (setting [8]), 1.9 µg/mL (≈ 5.13 µM); with A. fumigatus (setting [9]) it was 32 µg/mL (≈ 86.4 µM). In addition, the IC80 in the series on A. fumigatus (setting [10]) stood at 37 µg/mL (≈ 99.9 µM).

For the compound “(2S,3R,4S,5S)-5-methyl-2-[(E)-1-nonenyl]-4-propoxy-tetrahydro-2H-pyran-3-ylglycinate trifluoroacetic acid salt [Example 21]”, the 50% lethal dose (LD50) entry in series [1] was “more than 500 mg/kg”. Also, the “Antifungal activity MIC” value in the series on Candida albicans [2] (Candida albicans CY1002) amounted to 100 µg/mL; in the series on Candida albicans [2] (Candida albicans CY1005), 50 µg/mL; in the series on Candida albicans [2] (Candida albicans CY3003) it was 100 µg/mL; in the series on Aspergillus fumigatus (Aspergillus fumigatus CF1003) it was 12.5 µg/mL; with Aspergillus fumigatus (Aspergillus fumigatus CF1004), 6.25 µg/mL; in the series with Aspergillus fumigatus (Aspergillus fumigatus CF1023), 12.5 µg/mL. The “Antifungal activity MIC” value with Cryptococcus neoformans (Cryptococcus neoformans CY1057) turned out to be 12.5 µg/mL; with Cryptococcus neoformans (Cryptococcus neoformans CY1059) it was 12.5 µg/mL; in the series with Cryptococcus neoformans (Cryptococcus neoformans CY1061), 25 µg/mL.

The values above are taken from US5719291A, “Cyclohexane derivatives” (Hoffmann-La Roche Inc., priority 1991, dated 1998).
